Laboratory results: patent US20230303561A1, “PYRIMIDINONE DERIVATIVE, PREPARATION METHOD THEREOF AND USE THEREOF IN RESISTING MYCOBACTERIUM TUBERCULOSIS INFECTION” (INSTITUTE OF MEDICINAL BIOTECHNOLOGY, CHINESE ACADEMY OF …, priority 2020, published 2023)
Values after ≈ are worked out from the molar mass of the structure shown.

Test system: MTB H37Rv
Test: Bacteriostasis experiment: MIC in 96-well plate, two-fold dilution method
Assay type: cell-based, Mycobacterium tuberculosis
Conditions: MTB H37Rv (ATCC 27294), 7H9 medium, 37° C., about 10 days

For CSc1nc2c(c(=O)[nH]1)C(c1cccc([N+](=O)[O-])c1)CC(=O)N2 (stereo not drawn) [LSL-9-09, 2-methylmercapto-5-(3-nitrophenyl)-5,6-dihydropyrido[2,3-d]pyrimidin-4,7(3H,8H)-dione], the “Inhibitory activity against Mycobacterium tuberculosis, MIC, MTB H37Rv” value was 64 µg/mL.

Same assay, conditions: MTB H37Rv, statement on Table 1 data

CCCSc1nc2c(c(=O)[nH]1)C(c1ccc(OC)cc1O)CC(=O)N2 (stereo not drawn) [LSL-9-02, 2-propylmercapto-5-(2-hydroxy-4-methoxyphenyl)-5,6-dihydropyrido[2,3-d]pyrimidin-4,7(3H,8H)-dione] was tested, and the “anti-mycobacterium tuberculosis MIC compared with the positive control drug INH” value was “equivalent to that of the positive control drug INH”.
In the case of CCCOc1ccc(C2CC(=O)Nc3nc(SCCC)[nH]c(=O)c32)c(O)c1 (stereo not drawn) [LSL-9-29, 2-propylmercapto-5-(2-hydroxy-4-propoxyphenyl)-5,6-dihydropyrido[2,3-d]pyrimidin-4,7(3H,8H)-dione], the “anti-mycobacterium tuberculosis MIC compared with the positive control drug INH” value is reported as “equivalent to that of the positive control drug INH”.
CCCSc1nc2c(c(=O)[nH]1)C(c1ccc3ncccc3c1)CC(=O)N2 (stereo not drawn) [LSL-9-36, 2-propylmercapto-5-(quinolin-6-yl)-5,6-dihydropyrido[2,3-d]pyrimidin-4,7(3H,8H)-dione] was tested, and the “anti-mycobacterium tuberculosis MIC compared with the positive control drug INH” value was “equivalent to that of the positive control drug INH”.

Same assay, conditions: Mycobacterium tuberculosis, ATCC 27294 / H37Rv, 240 h, MTB H37Rv (ATCC 27294), 7H9 medium, 37° C., about 10 days; read-out: Inhibitory activity against Mycobacterium tuberculosis, MIC, MTB H37Rv

First: CCCOc1ccc(C2CC(=O)Nc3nc(SC)[nH]c(=O)c32)cc1 (stereo not drawn) [LSL-7-36, 2-methylmercapto-5-(4-propoxyphenyl)-5,6-dihydropyrido[2,3-d]pyrimidin-4,7(3H,8H)-dione]
Second: CCCSc1nc2c(c(=O)[nH]1)C(c1ccc(F)cc1)CC(=O)N2 (stereo not drawn) [LSL-9-27, 2-propylmercapto-5-(4-fluorophenyl)-5,6-dihydropyrido[2,3-d]pyrimidin-4,7(3H,8H)-dione]
The MIC of the first is lower: 32 µg/mL (≈ 92.6 µM) for the first, > 64 µg/mL for the second.

Compared with CCCSc1nc2c(c(=O)[nH]1)C(c1ccc(OC)c(O)c1)CC(=O)N2 (stereo not drawn) [LSL-7-38, 2-propylmercapto-5-(3-hydroxy-4-methoxyphenyl)-5,6-dihydropyrido[2,3-d]pyrimidin-4,7(3H,8H)-dione], CCCOc1ccc(C2CC(=O)Nc3nc(SCCC)[nH]c(=O)c32)cc1O (stereo not drawn) [LSL-9-25, 2-propylmercapto-5-(3-hydroxy-4-propoxyphenyl)-5,6-dihydropyrido[2,3-d]pyrimidin-4,7(3H,8H)-dione] is 4-fold higher in MIC: 1 µg/mL (≈ 2.77 µM) for the first, 4 µg/mL (≈ 10.3 µM) for the second.

Going from COc1ccc(C2CC(=O)Nc3nc(SC)[nH]c(=O)c32)cc1O (stereo not drawn) [LSL-7-39, 2-methylmercapto-5-(3-hydroxy-4-methoxyphenyl)-5,6-dihydropyrido[2,3-d]pyrimidin-4,7(3H,8H)-dione] to C=CCSc1nc2c(c(=O)[nH]1)C(c1ccc(OC)c(O)c1)CC(=O)N2 (stereo not drawn) [LSL-9-15, 2-allylmercapto-5-(3-hydroxy-4-methoxyphenyl)-5,6-dihydropyrido[2,3-d]pyrimidin-4,7(3H,8H)-dione], the MIC falls from 16 µg/mL (≈ 48 µM) to 2 µg/mL (≈ 5.56 µM) (8-fold).

First: CCCSc1nc2c(c(=O)[nH]1)C(c1ccc(O)c(O)c1)CC(=O)N2 (stereo not drawn) [LSL-7-42, 2-propylmercapto-5-(3,4-dihydroxyphenyl)-5,6-dihydropyrido[2,3-d]pyrimidin-4,7(3H,8H)-dione]
Second: CCCSc1nc2c(c(=O)[nH]1)C(c1cc(O)c(O)c(O)c1)CC(=O)N2 (stereo not drawn) [LSL-9-33, 2-propylmercapto-5-(3,4,5-trihydroxyphenyl)-5,6-dihydropyrido[2,3-d]pyrimidin-4,7(3H,8H)-dione]
The MIC of the first is 2-fold lower: 32 µg/mL (≈ 92.1 µM) for the first, 64 µg/mL (≈ 176 µM) for the second.

Going from COc1cc(C2CC(=O)Nc3nc(SC)[nH]c(=O)c32)cc(OC)c1OC (stereo not drawn) [LSL-7-43, 2-methylmercapto-5-(3,4,5-trimethoxyphenyl)-5,6-dihydropyrido[2,3-d]pyrimidin-4,7(3H,8H)-dione] to CCCSc1nc2c(c(=O)[nH]1)C(c1cc(OC)c(OC)c(OC)c1)CC(=O)N2 (stereo not drawn) [LSL-7-44, 2-propylmercapto-5-(3,4,5-trimethoxyphenyl)-5,6-dihydropyrido[2,3-d]pyrimidin-4,7(3H,8H)-dione], the MIC falls from > 64 µg/mL to 16 µg/mL (≈ 39.5 µM).

CCCSc1nc2c(c(=O)[nH]1)C(c1ccc(OC)c(OC)c1)CC(=O)N2 (stereo not drawn) [LSL-7-46, 2-propylmercapto-5-(3,4-dimethoxyphenyl)-5,6-dihydropyrido[2,3-d]pyrimidin-4,7(3H,8H)-dione] and C=CCSc1nc2c(c(=O)[nH]1)C(c1ccc(OC)c(OC)c1)CC(=O)N2 (stereo not drawn) [LSL-9-17, 2-allylmercapto-5-(3,4-dimethoxyphenyl)-5,6-dihydropyrido[2,3-d]pyrimidin-4,7(3H,8H)-dione] are the same in MIC: 8 µg/mL (≈ 21.3 µM) for the first, 8 µg/mL (≈ 21.4 µM) for the second.

First: CCCSc1nc2c(c(=O)[nH]1)C(c1ccc(Cl)c([N+](=O)[O-])c1)CC(=O)N2 (stereo not drawn) [LSL-7-48, 2-propylmercapto-5-(3-nitro-4-chlorophenyl)-5,6-dihydropyrido[2,3-d]pyrimidin-4,7(3H,8H)-dione]
Second: CCCSc1nc2c(c(=O)[nH]1)C(c1cccc([N+](=O)[O-])c1)CC(=O)N2 (stereo not drawn) [LSL-9-10, 2-propylmercapto-5-(3-nitrophenyl)-5,6-dihydropyrido[2,3-d]pyrimidin-4,7(3H,8H)-dione]
The MIC of the first is 2-fold lower: 2 µg/mL (≈ 5.07 µM) for the first, 4 µg/mL (≈ 11.1 µM) for the second.

CSc1nc2c(c(=O)[nH]1)C(c1ccc([N+](=O)[O-])cc1)CC(=O)N2 (stereo not drawn) [LSL-7-49, 2-methylmercapto-5-(4-nitrophenyl)-5,6-dihydropyrido[2,3-d]pyrimidin-4,7(3H,8H)-dione] and CCCSc1nc2c(c(=O)[nH]1)C(c1ccc([N+](=O)[O-])cc1)CC(=O)N2 (stereo not drawn) [LSL-7-50, 2-propylmercapto-5-(4-nitrophenyl)-5,6-dihydropyrido[2,3-d]pyrimidin-4,7(3H,8H)-dione] are the same in MIC: 64 µg/mL (≈ 193 µM) for the first, 64 µg/mL (≈ 178 µM) for the second.

Compared with COc1ccc(C2CC(=O)Nc3nc(SC)[nH]c(=O)c32)c(O)c1 (stereo not drawn) [LSL-9-01, 2-methylmercapto-5-(2-hydroxy-4-methoxyphenyl)-5,6-dihydropyrido[2,3-d]pyrimidin-4,7(3H,8H)-dione], CCCSc1nc2c(c(=O)[nH]1)C(c1ccc(OC)cc1O)CC(=O)N2 (stereo not drawn) [LSL-9-02, 2-propylmercapto-5-(2-hydroxy-4-methoxyphenyl)-5,6-dihydropyrido[2,3-d]pyrimidin-4,7(3H,8H)-dione] is 16-fold lower in MIC: 8 µg/mL (≈ 24 µM) for the first, 0.5 µg/mL (≈ 1.38 µM) for the second.

First: CCCSc1nc2c(c(=O)[nH]1)C(c1ccc(I)cc1)CC(=O)N2 (stereo not drawn) [LSL-9-19, 2-propylmercapto-5-(4-iodophenyl)-5,6-dihydropyrido[2,3-d]pyrimidin-4,7(3H,8H)-dione]
Second: CCCSc1nc2c(c(=O)[nH]1)C(c1ccc(Br)cc1)CC(=O)N2 (stereo not drawn) [LSL-9-26, 2-propylmercapto-5-(4-bromophenyl)-5,6-dihydropyrido[2,3-d]pyrimidin-4,7(3H,8H)-dione]
The MIC of the first is higher: > 64 µg/mL for the first, 2 µg/mL (≈ 5.07 µM) for the second.

Going from CCCSc1nc2c(c(=O)[nH]1)C(c1ccc(OC)c(O)c1O)CC(=O)N2 (stereo not drawn) [LSL-9-23, 2-propylmercapto-5-(2,3-dihydroxy-4-methoxyphenyl)-5,6-dihydropyrido[2,3-d]pyrimidin-4,7(3H,8H)-dione] to CCCOc1ccc(C2CC(=O)Nc3nc(SCCC)[nH]c(=O)c32)c(O)c1 (stereo not drawn) [LSL-9-29, 2-propylmercapto-5-(2-hydroxy-4-propoxyphenyl)-5,6-dihydropyrido[2,3-d]pyrimidin-4,7(3H,8H)-dione], the MIC falls from 64 µg/mL (≈ 170 µM) to 0.5 µg/mL (≈ 1.28 µM) (130-fold).

Going from CCCSc1nc2c(c(=O)[nH]1)C(c1ccc(OCc3ccccc3)cc1)CC(=O)N2 (stereo not drawn) [LSL-9-31, 2-propylmercapto-5-(4-benzyloxyphenyl)-5,6-dihydropyrido[2,3-d]pyrimidin-4,7(3H,8H)-dione] to CCCSc1nc2c(c(=O)[nH]1)C(c1ccc(Oc3ccccc3)cc1)CC(=O)N2 (stereo not drawn) [LSL-9-32, 2-propylmercapto-5-(4-phenoxyphenyl)-5,6-dihydropyrido[2,3-d]pyrimidin-4,7(3H,8H)-dione], the MIC rises from 16 µg/mL (≈ 38 µM) to > 64 µg/mL.

Compared with CCCSc1nc2c(c(=O)[nH]1)C(c1ccc(OC(F)(F)F)cc1)CC(=O)N2 (stereo not drawn) [LSL-9-35, 2-propylmercapto-5-(4-trifluoromethoxyphenyl)-5,6-dihydropyrido[2,3-d]pyrimidin-4,7(3H,8H)-dione], CCCSc1nc2c(c(=O)[nH]1)C(c1ccc3ncccc3c1)CC(=O)N2 (stereo not drawn) [LSL-9-36, 2-propylmercapto-5-(quinolin-6-yl)-5,6-dihydropyrido[2,3-d]pyrimidin-4,7(3H,8H)-dione] is 510-fold lower in MIC: 64 µg/mL (≈ 160 µM) for the first, 0.125 µg/mL (≈ 0.341 µM) for the second.
